Test results: patent publication US20230190616A1, “COMPOUNDS USEFUL FOR THE TREATMENT AND/OR CARE OF THE SKIN, HAIR, NAILS AND/OR MUCOUS MEMBRANES” (LUBRIZOL ADVANCED MATERIALS, INC., priority 2018, published 2023)

Columns and labels:
[1] = system: human muscular skeletal cells (hSKMC); assay: Alleviation of TNF-α induced muscle mass loss in human skeletal muscle cells by immunofluorescence; format: cell-based; details: for % Loss (muscle mass loss): 0.01 mg/ml peptide after 20 ng/ml TNFα, normalized to mass loss control (BC + TNF) = 100; for Mass loss compared to basal control treated with TNF-α (in words): 0.01 mg/ml, hSKMC
Experimental: In vitro alleviation of the effects of muscle mass loss induced in human skeletal muscle cells by immunofluorescence.
Muscle mass loss correction by the peptides of the invention is evaluated by an immunofluorescence assay. The aim of this study is to investigate the capacity of peptide candidates to alleviate muscular mass loss after treatment with TNF-α in human muscular skeletal cells (hSKMC), i.e., to reverse the adverse effects induced by TNF-α (a model of muscular ageing). Myosin heavy chain (MHyC) is used as a morphologic marker of differentiated myotubes allowing the measurement of their diameters, and this can be used to ascertain a degree of mass loss. Tumor necrosis factor α (TNF-α) has been described in the literature as a muscle mass loss inductor.
hSKMC (Tebu-Bio) are seeded in 96-well plates at a density of 1.5×10^4 cells/well in Skeletal Muscle Cell Growth Medium (Promocell). After 24 hours incubation, the medium is replaced with Skeletal Muscle Cell Differentiation Medium (Promocell) and cells are differentiated for 6 days. After this, muscular cells mass loss is induced by adding fresh differentiation medium with 20 ng/ml TNFα (Sigma). Non-TNFα treated cells are used as a basal control (BC). After 24 hours of mass loss induction, the culture medium is replaced in some of the well plates with fresh differentiation medium comprising 0.01 mg/ml of the peptides of the invention. TNFα treated cells which are not treated with peptides are used as a mass loss control (BC + TNF) and cells which are treated with neither the peptides of the invention nor TNFα are used as a basal mass loss control (BC). Treatment is renewed 24 hours later. After 24 hours after the second treatment, immunofluorescence is determined. Cells are fixed 15 minutes with 4% Paraformaldehyde (Sigma), permeated 15 minutes with 1% Triton X-100 (Sigma) and then blocked with 5% Bovine Serum Albumin (Sigma). Next, primary antibody Anti-MHyC mouse (1:100, Vitro) is added and incubated overnight at 4° C. After that, secondary antibody Alexa Fluor 488 goat anti-mouse IgG (1:250, Life Technologies) is added and incubated for 1 hour. Finally, myotube diameters are determined by imaging MHyC staining by Operetta™ (Perkin Elmer). Percentage of mass loss is automatically calculated with Harmony™ (Perkin Elmer) software by classifying myotubes according to their diameter using a mass loss threshold of 20 µm. The results are normalized to the mass loss control (BC + TNF).

[2] = system: human subcutaneous pre-adipocytes; assay: Lipid accumulation in coculture of young and old human subcutaneous pre-adipocytes (Adipored staining); format: cell-based; details: 0.01 mg/ml; for %LA (percentage of lipid accumulation): 12 days, coculture of donor cells, respect to coculture control = 100
Excerpt: In vitro effect of PEP-22 and PEP-23 in lipid accumulation in human subcutaneous pre-adipocytes.
Measurement of lipid accumulation in a coculture of young and old adipose cells indirectly evaluates the inhibition of SASP. A pool of old adipose cells has a higher number of senescent cells. When cocultured with young cells, lipid accumulation observed is below the theoretically expected levels due to a senescence induction effect of SASP from old to young adipocytes.
Induction of lipid accumulation by the peptides of the invention is evaluated by lipid fluorescent staining with Adipored® Assay Reagent. The aim of this study is to investigate the capacity of peptide candidates to induce lipid accumulation in human subcutaneous adipocytes, and therefore prevent adipocytes senescence.
Human subcutaneous pre-adipocytes (donors, Cell applications) cells are cocultured in 96-well plates at a density of 4×10^3 cells/well each age in Human Preadipocyte Growth Medium (Sigma). Monoculture of each age are seeded at a density of 8×10^3 cells/well as age lipid accumulation controls. After 24 hours incubation, differentiation of pre-adipocytes into adipocytes is induced by changing medium to fresh Human Preadipocyte Differentiation Medium (Promocell). At the same time, cocultured cells are treated with 0.01 mg/ml of peptides of the invention. Non-treated cocultured cells are used as basal control and monocultured young and old cells as age lipid accumulation controls. After 12 days of treatment and differentiation, cells are stained with Adipored® Assay Reagent (Lonza) following the manufacturer’s instructions. In brief, the plate is washed with Phosphate Buffer Saline (Sigma) and then Adipored® reagent and Hoechst 33342 (Life technologies) are added and incubated for 15 minutes at 37° C. Finally, fluorescence intensity and nuclei number are measured by Operetta (Perkin Elmer). Fluorescence is normalized by cell nuclei and results are represented respect to cocultured basal control. Abbreviations: % LA = Percentage of lipid accumulation; CC = Coculture control; YC = young control; OC = old control.

Substance: Ac-L-Arg-L-Arg-D-Gln-L-Met-L-Glu-L-Glu-NH2 [PEP-22]
- % Loss (muscle mass loss) [1]: 76.2%
- Mass loss compared to basal control treated with TNF-α (in words) [1]: alleviate mass loss
- Lipid accumulation in adipocytes compared to coculture basal control (in words) [2]: increase lipid accumulation
- %LA (percentage of lipid accumulation) [2]: 133.9%

Substance: Ac-L-Arg-L-Arg-L-Gln-D-Met-L-Glu-L-Glu-NH2 [PEP-23]
- % Loss (muscle mass loss) [1]: 71.9%
- Mass loss compared to basal control treated with TNF-α (in words) [1]: alleviate mass loss
- Lipid accumulation in adipocytes compared to coculture basal control (in words) [2]: increase lipid accumulation
- %LA (percentage of lipid accumulation) [2]: 159.9%
